Legend:
[1] = target: T1, Axl (Homo sapiens, UniProt P30530); experiment: HTRF KinEASE-TK biochemical potency assay, AXL; set-up: purchased Invitrogen; details: 5 nM AXL, 700 μM ATP, 800 nM TK Substrate-biotin
T1 sequence (P30530 26-894): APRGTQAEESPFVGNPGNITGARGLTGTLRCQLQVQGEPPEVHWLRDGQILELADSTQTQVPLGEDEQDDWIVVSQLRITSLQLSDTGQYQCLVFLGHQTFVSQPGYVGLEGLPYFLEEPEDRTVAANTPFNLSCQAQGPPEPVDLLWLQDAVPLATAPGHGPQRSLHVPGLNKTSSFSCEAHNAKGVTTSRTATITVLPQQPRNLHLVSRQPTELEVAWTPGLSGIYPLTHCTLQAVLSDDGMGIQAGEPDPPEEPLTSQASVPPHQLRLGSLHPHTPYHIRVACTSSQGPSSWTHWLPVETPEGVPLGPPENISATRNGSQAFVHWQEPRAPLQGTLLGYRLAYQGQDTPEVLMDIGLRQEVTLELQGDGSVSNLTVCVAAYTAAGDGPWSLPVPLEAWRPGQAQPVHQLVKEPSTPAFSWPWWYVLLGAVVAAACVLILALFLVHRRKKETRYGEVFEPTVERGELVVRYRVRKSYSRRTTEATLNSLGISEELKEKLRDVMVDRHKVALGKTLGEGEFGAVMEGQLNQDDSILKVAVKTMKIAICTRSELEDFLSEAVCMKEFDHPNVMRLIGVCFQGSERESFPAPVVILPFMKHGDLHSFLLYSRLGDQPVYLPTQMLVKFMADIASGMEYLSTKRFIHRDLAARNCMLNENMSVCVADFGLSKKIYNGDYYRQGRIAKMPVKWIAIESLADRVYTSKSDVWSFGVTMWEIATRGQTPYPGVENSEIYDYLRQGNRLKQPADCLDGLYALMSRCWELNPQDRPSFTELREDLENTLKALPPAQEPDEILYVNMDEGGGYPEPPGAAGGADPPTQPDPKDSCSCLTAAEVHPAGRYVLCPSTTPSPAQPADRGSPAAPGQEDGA
Experimental: Purified recombinant human AXL, TYRO3 and MER proteins were purchased from Invitrogen™. 10 nM AXL, 2 nM TYRO3 or MER were incubated with varying concentrations of compounds in 50 mM HEPES, pH 7.4, 10 mM MgCl2, 0.01% BSA, 1 mM DTT and 2% DMSO in a total volume of 20 μl in a 384-well microplate (Corning™ #3640) at RT for 1 h. The AXL, TYRO3 and MER enzymatic reaction was initiated by transferring 10 μl of enzyme and compound mixture into 10 μl of 1.6 μM TK Substrate-biotin (HTRF® KinEASE-TK kit, Cisbio) and 1400 μM ATP pre-incubated in 50 mM HEPES, pH 7.4, 10 mM MgCl2, 0.01% BSA, 1 mM DTT in a 384-well microplate (Corning™ #3640) at RT, giving the final reaction conditions: 5 nM AXL, 1 nM TYRO3 or MER, 800 nM TK Substrate-biotin and 700 μM ATP in 50 mM HEPES, pH 7.4, 10 mM MgCl2, 0.01% BSA, 1 mM DTT and 1% DMSO with varying concentrations of compounds. Following 2 h incubation at RT, the AXL, TYRO3 and MER enzymatic reaction was stopped by transfer of 10 μl of reaction into 10 μl of detection mix (400 nM Streptavidin-XL665, 200-fold dilution TK Antibody-Cryptate and detection buffer, HTRF® KinEASE-TK kit, Cisbio) in a white 384-well microplate (Perkin Elmer, OptiPlate 384). After 1 h incubation at RT, the plate was put into a plate reader (Evision) to read at 665/620 nm (acceptor/donor) for HTRF. The value of the DMSO blank (MIN inhibition=100% activity) was used as a negative control. The positive control was established by adding 5 μl of enzyme and DMSO mixture into 10 μl of detection mix followed by addition of 5 μl of TK Substrate-biotin and ATP mixture (MAX inhibition=0% activity). To calculate the percent activity, Equation 1 was used. Ratio 665/620 is the value at a given compound concentration: […]

[2] = target: T1, Axl; experiment: Axl NanoBRET intracellular kinase assay (intracellular binding, Cell Binding); set-up: host or cells: HEK-293; details: HEK-293 cells transfected with Axl-NanoLuc fusion vector; 0.35 μM K-5 NanoBRET tracer
Experimental: Axl NanoBRET™ intracellular kinase assay (Promega, N2540) was performed according to manufacturer's recommendation. In brief, HEK-293 cells are transiently transfected with Axl-NanoLuc fusion vector (Promega, NV1071), utilizing Fugene HD transfection reagent (Promega, E2311) a day before experiment following manufacturer's recommendation.
The day of the assay, the cells were collected and resuspended in Opti-MEM media (ThermoFisher, 31985070) at 2e5 cells/mL concentration. Testing compounds were serial diluted and dispensed into a white 384 well polystyrene plate at 200 nL in 100% DMSO. 40 μL of resuspended cells is then added per well for a final condition of 8K cells/well with 0.5% DMSO. After one-hour compound pre-incubation at 37° C. and 5% CO2, cells were further incubated with 0.35 μM K-5 NanoBRET tracer for two-hours at 37° C. and 5% CO2. […] of 3× substrate plus Inhibitor solution was prepared according to kits manual and added to the cells followed by a 30 second pulse centrifugation spin. The plate was then immediately read utilizing an Envision (Perkin Elmer) plate reader. The BRET signal is measured by taking the ratio of the emissions reading at 610 nm and 450 nm. Compound binding is based on the decrease BRET signal caused by the displacement of the K-5 tracer. […] IC50 value of compounds was determined by 4-parameter non-linear regression fitting of percent activity in GraphPad Prism software.

Structure (SMILES)	IC50 [1] [µM]	IC50 [2] [µM]
CCS(=O)(=O)c1ccc(-c2n[nH]c3ncc(-c4ccc5c(c4)CCC(C)(N4CCC[C@H]4C)CC5)cc23)cc1 (stereo partly drawn) [Example 44, 3-(4-(Ethylsulfonyl)phenyl)-5-(7-methyl-7-((R)-2-methylpyrrolidin-1-yl)-6,7,8,9-tetrahydro-5H-benzo[7]annulen-2-yl)-1H-pyrazolo[3,4-b]pyridine]	< 0.1	< 0.1
CS(=O)(=O)c1ccc(-c2n[nH]c3nc(N)c(-c4ccc5c(c4)CCN(C4CCCC4)CC5)cc23)cc1 [Example 19, 5-(3-Cyclopentyl-2,3,4,5-tetrahydro-1H-3-benzazepin-7-yl)-3-(4-methanesulfonylphenyl)-1H-pyrazolo[3,4-b]pyridin-6-amine]	0.1 to 1	> 1
CNC(=O)c1ccc(-c2n[nH]c3ncc(-c4ccc5c(c4)CCC(C)(N4CCC[C@H]4C)CC5)cc23)cc1 (stereo partly drawn) [Example 71, N-Methyl-4-(5-{7-methyl-7-[(2R)-2-methylpyrrolidin-1-yl]-6,7,8,9-tetrahydro-5H-benzo[7]annulen-2-yl}-1H-pyrazolo[3,4-b]pyridin-3-yl)benzamide]	–	< 0.1
CC(C)(O)c1ccc(-c2c[nH]c3ncc(-c4ccc5c(c4)CCC(N4CCCC4)CC5)cc23)cc1Cl (stereo not shown) [Example 106, 2-(2-Chloro-4-{5-[7-(pyrrolidin-1-yl)-6,7,8,9-tetrahydro-5H-benzo[7]annulen-2-yl]-1H-pyrrolo[2,3-b]pyridin-3-yl}phenyl)propan-2-ol]	< 0.1	0.1 to 1
CC(C)S(=O)(=O)c1ccc(-c2n[nH]c3ncc(-c4ccc5c(c4)CCC(C)(N4CCC[C@H]4C)CC5)cc23)cc1 (stereo partly drawn) [Example 43, 3-(4-(Isopropylsulfonyl)phenyl)-5-(7-methyl-7-((R)-2-methylpyrrolidin-1-yl)-6,7,8,9-tetrahydro-5H-benzo[7]annulen-2-yl)-1H-pyrazolo[3,4-b]pyridine]	< 0.1	< 0.1
CC(O)(c1ccc(-c2n[nH]c3ncc(-c4ccc5c(c4)CCN(C4CCCC4)CC5)cc23)cc1)C(F)(F)F (stereo not shown) [Example 13, 2-{4-[5-(3-Cyclopentyl-2,3,4,5-tetrahydro-1H-3-benzazepin-7-yl)-1H-pyrazolo[3,4-b]pyridin-3-yl]phenyl}-1,1,1-trifluoropropan-2-ol]	–	0.1 to 1
CC(C)(C#N)c1ccc(-c2n[nH]c3ncc(-c4ccc5c(c4)CCN(C4CCCC4)CC5)cc23)cc1 [Example 33, 2-(4-(5-(3-Cyclopentyl-2,3,4,5-tetrahydro-1H-benzo[d]azepin-7-yl)-1H-pyrazolo[3,4-b]pyridin-3-yl)phenyl)-2-methylpropanenitrile]	0.1 to 1	> 1

Further lines, results first:

IC50 [1] [µM]	IC50 [2] [µM]	Structure (SMILES)
0.1 to 1	0.1 to 1	CC(C)(O)c1ccc(-c2n[nH]c3ncc(-c4ccc5c(c4)CC[C@@H](N4CCCC4)CC5)cc23)c(Cl)c1 [Example 51, 2-(3-Chloro-4-{5-[(7S)-7-(pyrrolidin-1-yl)-6,7,8,9-tetrahydro-5H-benzo[7]annulen-2-yl]-1H-pyrazolo[3,4-b]pyridin-3-yl}phenyl)propan-2-ol]
–	> 1	CC(C)(O)c1ccc(-c2n[nH]c3ncc(-c4ccc5c(c4)CCN(C4CCCC4)CC5)c(F)c23)cc1Cl [Example 15, 2-{2-Chloro-4-[5-(3-cyclopentyl-2,3,4,5-tetrahydro-1H-3-benzazepin-7-yl)-4-fluoro-1H-pyrazolo[3,4-b]pyridin-3-yl]phenyl}propan-2-ol]
–	> 1	CC(C)(O)c1ccc(-c2n[nH]c3ncc(-c4ccc5c(c4)CN(C4CCCC4)CC5)cc23)cc1Cl [Example 29, 2-(2-Chloro-4-(5-(2-cyclopentyl-1,2,3,4-tetrahydroisoquinolin-7-yl)-1H-pyrazolo[3,4-b]pyridin-3-yl)phenyl)propan-2-ol]
–	> 1	CC(C)(O)c1ccc(-c2n[nH]c3ncc(-c4ccc5c(c4)CCN(C4CCCC4)CC5)cc23)cc1OC(F)(F)F [Example 14, 2-{4-[5-(3-Cyclopentyl-2,3,4,5-tetrahydro-1H-3-benzazepin-7-yl)-1H-pyrazolo[3,4-b]pyridin-3-yl]-2-(trifluoromethoxy)phenyl}propan-2-ol]
–	> 1	CC(C)(O)c1ccc(-c2n[nH]c3ncc(-c4ccc5c(c4)CCN(C4CCCC4)C5)cc23)cc1Cl [Example 28, 2-(2-Chloro-4-(5-(2-cyclopentyl-1,2,3,4-tetrahydroisoquinolin-6-yl)-1H-pyrazolo[3,4-b]pyridin-3-yl)phenyl)propan-2-ol]
< 0.1	0.1 to 1	Cc1cc(C(N)=O)ccc1-c1n[nH]c2ncc(-c3ccc4c(c3)CC[C@@H](N3CCCC3)CC4)cc12 [Example 86, (S)-3-Methyl-4-(5-(7-(pyrrolidin-1-yl)-6,7,8,9-tetrahydro-5H-benzo[7]annulen-2-yl)-1H-pyrazolo[3,4-b]pyridin-3-yl)benzamide]
–	< 0.1	C[C@@H]1CCCN1C1(C)CCc2ccc(-c3cnc4[nH]cc(C5CCN(S(C)(=O)=O)CC5)c4c3)cc2CC1 (stereo partly drawn) [Example 116, 1-Methanesulfonyl-4-(5-{7-methyl-7-[(2R)-2-methylpyrrolidin-1-yl]-6,7,8,9-tetrahydro-5H-benzo[7]annulen-2-yl}-1H-pyrrolo[2,3-b]pyridin-3-yl)piperidine]
–	0.1 to 1	CC(C)(O)c1ccc(-c2n[nH]c3ncc(-c4ccc5c(c4)CCN(C4CCCC4)CC5)cc23)cc1 [Example 18, 2-{4-[5-(3-Cyclopentyl-2,3,4,5-tetrahydro-1H-3-benzazepin-7-yl)-1H-pyrazolo[3,4-b]pyridin-3-yl]phenyl}propan-2-ol]

Reference: patent US20240246967A1, “AXL COMPOUNDS” (ARCUS BIOSCIENCES, INC., priority 2021, published 2024)
